According to publication PMC3871595, “Structure Based Identification and Characterization of Flavonoids That Disrupt Human Papillomavirus-16 E6 Function” (PLoS ONE, 2013):
Entries after “also recorded” stand apart in the source; their conditions may differ. Read-outs that look alike come from different tables or passages of the source.

Experiments:
[1] = target: T1, MBP-E6 (Human papillomavirus type 16, UniProt P03126); test: thermal shift (Sypro Orange) assay; assay type: binding, HPV-16; settings: versus DMSO; for effect on Tm of MBP-E6: 5-150 µM tested
T1 construct: made in house; host or cells: E. coli BL21DE(3)
Protocol: A thermal shift assay was used to assess compound binding to HPV E6. In this reaction, protein denaturation is measured by an increase in fluorescence from Sypro Orange as it binds to the newly exposed hydrophobic surfaces on the protein [48]. A protein stability curve is created as a measure of the rate of protein unfolding. The relative fluorescence is plotted against temperature and the melting temperature (Tm) is determined by calculating the temperature of peak fluorescence. Ligand binding can stabilize the protein and increase the Tm. The thermal profile of MBP-E6 proteins was investigated to determine if the flavonoid derivatives could stabilize MBP-E6 protein structure during heat-induced unfolding. […] The change in Tm (∆Tm) was plotted for each compound and compared to DMSO (Figure 10F,G ).
MBP-16E6 DNA, a kind gift from G. Travé [58], was transformed into BL21DE(3) E. coli. Protein expression was performed by inoculation of a 1 mL starter culture in 100 mL of Turbo-Broth containing 0.2 % lactose, 0.05% glucose and 0.6% glycerol at 20°C for 24 hrs. Cells were lysed in 50 mM Tris HCl pH 6.8, 300 mM NaCl, 0.1 % (v/v) NP-40, 2 mM DTT and 1x protease inhibitor cocktail (EDTA-free, Roche) and sonicated as described before. Cell lysate was cleared by centrifugation at 15000xg, 4°C for 30 min and equilibrated with amylose resin beads (New England Biolabs, Inc.) by inversion for 3 hrs at 4°C. Bound beads were washed one time in lysis buffer and four times with wash buffer (50 mM Tris-HCl pH 6.8, 400 mM NaCl, 2 mM DTT, 1x protease inhibitor cocktail). Bound MBP-E6 proteins were eluted using a final concentration of 20 mM maltose in 5 bed volumes of wash buffer. All steps were performed at 4°C. Protein concentration was measured by BCA (BioRad). Thermostability of MBP-E6 proteins was analyzed at a final concentration of 1 µM in reaction buffer (50 mM TrisHCl pH 6.8, 400 mM NaCl, 2 mM DTT). MBP-E6 proteins were equilibrated with CAF-8 (5 µM-150 µM), CAF-24 (5 µM-150 µM), CAF-26 (5 µM-150 µM) or DMSO for 30 min in reaction buffer. Sypro Orange, a hydrophobic fluorescent dye, was added at the end of the incubation period at a final concentration of 5X. The final DMSO concentration (1.8% v/v) was kept constant across the concentration range. Fluorescence was measured using the FRET channel of CFX96 Real-Time PCR thermal cycler (BioRad) over a temperature range of 25°C to 95°C. Temperature increments were set to 0.5°C for 30 sec followed by plate reading. Melt curves were determined in triplicate and repeated four times. Melt curves represent the relative fluorescence of the 1st derivative of four experiments. Melting temperature (Tm) was calculated by CFX manager software. The average melting temperature of the triplicate was used to calculate the ∆Tm for each experiment. ∆Tm values are expressed as the change vs. DMSO.

[2] = system: Caski cells; test: SA-beta-gal senescence assay in Caski cells; assay type: cell-based, human; settings: 72 hours, versus vehicle
Protocol: This was specific to Caski cells and was not observed in RPE-1, HeLa cells, or the HPV negative control cell lines C33a and HaCat (Figures S2A,B ). […] As observed in the viability assay, this occurred in both the HPV positive and negative cell lines. […] These cell lines were also assayed for apoptosis.
12,000 cells per cm^2 were plated in 24-well dishes; after 24 hours, fresh media and compound were added. SA-beta gal staining was performed as described. Images were collected using bright field microscopy. At least four fields (~100 cells per field) were read for each treatment, and experiments were repeated 3 times. The percent SA-beta-gal positive cells was calculated for each data point.

[3] = target: T2, interaction between HPV-16 E6 and E6AP (Human papillomavirus type 16, UniProt P03126); test: biochemical; assay type: binding; settings: for Emax: read-out: Maximal Inhibition
T2 construct: made in house; host or cells: E. coli BL21
Protocol: To characterize potential E6 inhibitors, a robust in vitro assay was developed to measure the interaction between HPV-16 E6 and E6AP. […] The core 70 amino acids of the E6 binding region of E6AP (residues 371-440) was fused to bacterial alkaline phosphatase (BAP) in the MY101 vector [40]. […] Binding efficiency was determined from the intensity of BAP activated chemiluminescence remaining in each well.
Kinetic analysis was performed to characterize the protein-protein interaction inherent in this assay.
The collection of 72 available structural-lead compounds was tested in the filter-plate based in vitro E6-E6AP binding assay. […] Compounds that disrupted the Flag-BAP interaction with the same potency as the HPV-16 E6 and E6AP interaction were classified as non-specific and eliminated from further analysis. […]
Pre-Block - 96-well filter plates were prepared (0.2 µm BioTrace NT, Pall). 100µL of blocking buffer (100 mM Tris pH 8.0, 100 mM NaCl, 0.1% milk) was added per well. Plates were blocked for 1 hr at RT on an orbital shaker. Buffer was removed by vacuum filtration using a vacuum manifold. GST-E6 Bead addition – GST-E6 beads were prepared at 5µg/mL in GST-E6 bead buffer (100 mM Tris pH 8.0, 100 mM NaCl, 0.1% milk, 2.5 mM DTT). 100µL of GST-E6 bead mix was added per well and incubated for 1 hr at 4°C. Buffer was removed by vacuum filtration. […] 48 µL of each reagent was added per well. For drug assay, 2µL of compound was added to each well and mixed thoroughly. […] Plates were incubated for 1-3 hours at RT on an orbital shaker. Buffer was removed by vacuum filtration. Plates were washed on the vacuum manifold, first with 200 µL buffer (100 mM Tris pH 8.0, 100 mM NaCl, 1 mM DTT), and twice more with 100µL lysis buffer without DTT. Plates were cleared and dried with on the vacuum manifold. Assay – Immunostar assay reagent was prepared and equilibrated to RT prior to addition. 60 µL of Immunostar-AP assay reagent was added, the BAP activity was allowed to develop for 10 minutes and the plates were read on a Wallace Luminometer. BAP activity was measured as relative light units (RLU) on a luminometer using the Immunostar-AP substrate (BioRad).

[4] = full 7-point dose response, 0.5 µM to 333 µM, quadruplicate

T1 sequence (P03126 whole entry): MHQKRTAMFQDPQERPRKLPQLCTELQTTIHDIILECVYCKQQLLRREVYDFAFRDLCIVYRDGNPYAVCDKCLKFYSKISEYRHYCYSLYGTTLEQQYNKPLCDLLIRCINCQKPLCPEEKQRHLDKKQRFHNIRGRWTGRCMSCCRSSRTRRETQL
T2 sequence (P03126 whole entry): as above

Structure (SMILES)	effect on Tm of MBP-E6 [1]	shift of MBP-E6 Tm ([1]; at 25, 50 and 150 µM)	SA-β-gal staining [2]	IC50 [3]	IC50 [3, 4]	Emax [3]	inhibition of the interaction between E6 and E6AP ([3]; full 7-point binding assay, maximum)
COc1cccc(-c2cc(=O)c3cc(-c4nnn[nH]4)ccc3o2)c1 [CAF-24]	about 1 °C	~1 °C	increased more than two-fold	2.8 µM	low micromolar IC50 values	95%	
O=c1cc(-c2ccc(O)c(O)c2)oc2cc(O)cc(O)c12 [luteolin, reference compound]	no effect on the Tm of MBP-E6; also recorded: did not shift the Tm of MBP-E6		no significant increase in β-gal staining	4.3 µM	low micromolar IC50 values	99%	up to 100%
